Patent US20220306585A1, “PYRAZOLE DERIVATIVES FOR CONTROLLING ARTHROPODS” (Bayer Animal Health GmbH, priority 2019, published 2022)
≈ marks a conversion by molar mass, not a printed value.

Experiments:
[1] = test system: Dermacentor variabilis nymph; assay: Antiparasitic activity after administration to rats: ticks; format: in vivo; details: Dermacentor variabilis nymph; for In-vivo Efficacy SD2: study day 2; for In-vivo Efficacy SD9: study day 9; for In-vivo Efficacy SD16: study day 16; for In-vivo Efficacy SD23: study day 23; for In-vivo Efficacy SD30: study day 30; for In-vivo Efficacy SD37: study day 37; for In-vivo Efficacy SD42: study day 42
Protocol: (§1) Measurement of the Antiparasitic Activity after Administration of a Prodrug to Rats Compounds were dissolved in the appropriate volume of glycerol formal (p.a.) just before application to the animals (dose volume was adjusted to 0.03 mL/kg bodyweight). 5 rats per group were either injected intraperitoneally or subcutaneously. Rats were infested with 30 Dermacentor variabilis nymphs on study days −2, 7, 14, 21, 28, 35 and 30 adult Ctenocephalides fleas on study days −1, 8, 15, 22, 29, 36. Parasite counts were performed on study days 2, 9, 16, 23, 30, 37. Percent efficacy was calculated as arithmetic mean parasite numbers as life attached tick numbers and live flea numbers of the respective study group in comparison to parasite counts on a placebo-treated control group. Infestation of groups with less than 75% efficacy on two consecutive counting occasions will terminated for the respective parasite.

[2] = Measurement of solubility in buffer at pH 6.5; format: physicochemical; details: aqueous buffer, kinetic from dmso stock; PBS buffer pH 6.5, shaken 24 h at rt, LC-MSMS; read-out: Solubility of example compounds at pH 6.5
Protocol: Measurement of Solubility in Buffer at pH 6.5 2-4 mg of the test compound are dissolved in DMSO to reach a concentration of 50 g/L (solution A). To 10 μL of this solution 960 μL PBS buffer pH 6.5 are added (final concentration: […]); the mixture is shaken for 24 h at rt in a 96 well plate. An aliquot is centrifuged at 42000 rpm für 30 min. The supernatant is diluted with acetonitrile/water (8:2) 1:10 and 1:1000 resp. This diluted samples are analyzed by LC-MSMS. Calibration: 10 μL of solution A are diluted with 823 μL DMSO (final concentration: 600 μg/mL), which is further diluted with acetonitrile/water 8:2 by a factor of 100 (provides solution B). The calibration curve is obtained from solution B by further diluting with acetonitrile/water 8:2 with target concentrations of 1.2-12-60-600 ng/mL and injecting these four solutions for MS measurement. PBS-Puffer: 6.18 g sodium chloride and 3.96 g sodium dihydrogen phosphate are dissolved in 1 L aqua dist., the pH is adjusted to 6.5 with IN sodium hydroxide.

[3] = Degradation of prodrugs and release of parent drug in rat plasma; format: in vitro ADME; details: male, Hannover-Janvier RjHan, rat plasma (Li-heparin), 37° C., percent area of prodrug at t0
Protocol: Measurement of Release of Parent Drug in Rat Plasma 1 mg of the test compound was dissolved in 0.5 mL acetonitrile/dimethylsulfoxide 9:1. For complete dissolution the HPLC vial was shaken and treated with ultrasound. 20 μL of this solution were added to 1 mL of rat plasma (Li-heparin plasma, Hannover-Janvier rat, RjHan male) with vortexing at a temperature of 37° C. Aliquots (100 μL each) were taken at 0.17, 0.5, 1, 1.5, 2 and 4 hours. Each aliquot was transferred to a vial containing 300 μL of acetonitrile/citric acid buffer pH 3 8:2. These solutions were centrifuged at 5000 rpm for 10 minutes. The supernatant was analysed by HPLC (Method 8) to determine the amount of the test compound. In addition, the reaction mixture was analysed by method 9 (HPLC-MS) at the final timepoint. Both decrease of the prodrug concentration and increase of parent drug concentration were monitored. All data is given as percent area of the prodrug at to.

[4] = test system: Ctenocephalides felis adult; assay: Antiparasitic activity after administration to rats: fleas; format: in vivo; details: Ctenocephalides felis adult; for In-vivo Efficacy SD2: study day 2; for In-vivo Efficacy SD9: study day 9; for In-vivo Efficacy SD16: study day 16; for In-vivo Efficacy SD23: study day 23; for In-vivo Efficacy SD30: study day 30; for In-vivo Efficacy SD37: study day 37; for In-vivo Efficacy SD42: study day 42
Protocol: as §1

[5] = Measurement of stability of prodrugs in buffer at pH 7.4; format: physicochemical; details: PBS buffer pH 7.4, 37° C., HPLC peak area, read-out: % Recovery after 24 h (stability at pH 7.4)
Protocol: Preparation of the PBS buffer solution pH 7.4: 90 g sodium chloride, 13.61 g potassium dihydrogen phosphate, 83.35 g 1M aqueous sodium hydroxide were dissolved in water. More water was added up to a total volume of 1 L. This solution was diluted 1:10 with water. Eventually, pH was adjusted to pH 7.4 by the addition of phosphoric acid.
Measurement of Stability of Prodrugs in Buffer at pH 7.4
0.15 mg of the test compound were dissolved in 0.1 mL dimethylsulfoxide and 0.4 mL acetonitrile. For complete dissolution, the HPLC vial with the sample solution was shaken and treated with ultrasound. Then, 1.0 mL of PBS buffer solution pH 7.4 was added and the sample was vortexed. The sample solution was analysed by HPLC (method 8) to determine the amount of the test compound at a particular time over a period of 24 h at 37° C. The peak areas, given as percentage of total area, are used for quantification. In addition, the reaction mixture was analysed by method 9 (HPLC-MS) at the final timepoint.

[6] = Evaluation of pharmacokinetics in vivo (rat); details: concentration of Parent Drug A after admin. of the named substance
Protocol: Evaluation of Pharmacokinetics (In Vivo) To evaluate the pharmacokinetics of test substances in vivo, these test substances are dissolved in appropriate formulation vehicles (ethanol, dimethyl sulfoxide, PEG400, glycerol formal etc.), or mixtures thereof. The test substances are then administered to rats or dogs intravenously, orally or subcutaneously. The intravenous application is performed as bolus. Administered doses range usually between 0.1 to 5 mg/kg, however, doses for subcutaneous and oral administration can exceed this range up to doses of 30 mg/kg. Blood samples are retrieved via a catheter, exsanguination or venous puncture in vials containing appropriate anticoagulants, such as lithium heparinate or potassium EDTA. Plasma is generated from the blood via centrifugation. Blood samples are taken over an appropriate time interval, usually lasting up to 144 h after administration. If necessary, samples from later time points can also be taken. If possible, time points are chosen so that the initial absorption phase, the maximum plasma concentration (Cmax), and exposure within a certain time interval (AUC(0-t))aer described. Furthermore, it is possible to also retrieve organ-, tissue- and urine samples. The quantitative measurement of the test substances in the samples is performed using calibration curves in the respective matrices. The protein content of the samples is precipitated using acetonitrile or methanol. Thereafter, the samples are separated using HPLC in combination with reversed phase chromatography columns. The HPLC system is coupled to a triple quadrupole mass spectrometer via an electrospray interface. The evaluation of the plasma concentration/time profiles are afterwards evaluated using a validated pharmacokinetics evaluation program. […] Relative bioavailability (Frel) was used to describe the exposure of parent drug after prodrug administration compared to the exposure of parent drug after direct administration of compound A which was normalised to 100%.

N#CC1(N(COC(=O)CCC(=O)O)C(=O)c2cc(-c3cnn(-c4c(Cl)cc(C(F)(C(F)(F)F)C(F)(F)F)cc4OC(F)(F)F)c3)ccc2Cl)CC1 [Example 8, 4-{[(2-Chloro-5-{1-[2-chloro-4-(1,1,1,2,3,3,3-heptafluoropropan-2-yl)-6-(trifluoromethoxy)phenyl]-1H-pyrazol-4-yl}benzoyl)(1-cyanocyclopropyl)amino]methoxy}-4-oxobutanoic acid]
In-vivo Efficacy SD2 ([1]; 12.00 mg/kg sc): 100%
In-vivo Efficacy SD9 ([1]; 12.00 mg/kg sc): 100%
In-vivo Efficacy SD16 ([1]; 12.00 mg/kg sc): 99%
In-vivo Efficacy SD23 ([1]; 12.00 mg/kg sc): 100%
In-vivo Efficacy SD30 ([1]; 12.00 mg/kg sc): 100%
In-vivo Efficacy SD37 ([1]; 12.00 mg/kg sc): 100%
In-vivo Efficacy SD42 ([1]; 12.00 mg/kg sc): 92%
solubility at 24 h [2]: 12 µg/mL (≈ 15.4 µM)
recovery at 0.17 h, 39 µg/mL [3]: 96%
recovery at 0.5 h, 39 µg/mL [3]: 95%
recovery at 1 h, 39 µg/mL [3]: 93%
recovery at 1.5 h, 39 µg/mL [3]: 92%
recovery at 2 h, 39 µg/mL [3]: 90%
recovery at 4 h, 39 µg/mL [3]: 86%
In-vivo Efficacy SD2 ([4]; 12.00 mg/kg sc): 100%
In-vivo Efficacy SD9 ([4]; 12.00 mg/kg sc): 99%
In-vivo Efficacy SD16 ([4]; 12.00 mg/kg sc): 100%
In-vivo Efficacy SD23 ([4]; 12.00 mg/kg sc): 100%
In-vivo Efficacy SD30 ([4]; 12.00 mg/kg sc): 97%
In-vivo Efficacy SD37 ([4]; 12.00 mg/kg sc): 88%
In-vivo Efficacy SD42 ([4]; 12.00 mg/kg sc): 78%
recovery at 24 h, 0.1 mg/mL [5]: 95%
AUC(0-144 h)norm of parent drug A ([6]; iv bolus): 12 kg·h/L
AUC(0-144 h)norm of parent drug A ([6]; sc): 6.7 kg·h/L

N#CC1(N(COC(=O)Cc2ccc(C(=O)O)cc2)C(=O)c2cc(-c3cnn(-c4c(Cl)cc(C(F)(C(F)(F)F)C(F)(F)F)cc4OC(F)(F)F)c3)ccc2Cl)CC1 [Example 15, 4-(2-{[(2-Chloro-5-{1-[2-chloro-4-(1,1,1,2,3,3,3-heptafluoropropan-2-yl)-6-(trifluoromethoxy)phenyl]-1H-pyrazol-4-yl}benzoyl)(1-cyanocyclopropyl)amino]methoxy}-2-oxoethyl)benzoic acid]
In-vivo Efficacy SD2 ([1]; 12.96 mg/kg sc): 100%
In-vivo Efficacy SD9 ([1]; 12.96 mg/kg sc): 100%
In-vivo Efficacy SD16 ([1]; 12.96 mg/kg sc): 100%
In-vivo Efficacy SD23 ([1]; 12.96 mg/kg sc): 100%
In-vivo Efficacy SD30 ([1]; 12.96 mg/kg sc): 100%
In-vivo Efficacy SD37 ([1]; 12.96 mg/kg sc): 100%
In-vivo Efficacy SD42 ([1]; 12.96 mg/kg sc): 96%
solubility at 24 h [2]: 5 µg/mL (≈ 5.94 µM)
recovery at 0.17 h, 39 µg/mL [3]: 94%
recovery at 0.5 h, 39 µg/mL [3]: 81%
recovery at 1 h, 39 µg/mL [3]: 62%
recovery at 1.5 h, 39 µg/mL [3]: 47%
recovery at 2 h, 39 µg/mL [3]: 36%
recovery at 4 h, 39 µg/mL [3]: 10%
In-vivo Efficacy SD2 ([4]; 12.96 mg/kg sc): 100%
In-vivo Efficacy SD9 ([4]; 12.96 mg/kg sc): 100%
In-vivo Efficacy SD16 ([4]; 12.96 mg/kg sc): 100%
In-vivo Efficacy SD23 ([4]; 12.96 mg/kg sc): 99%
In-vivo Efficacy SD30 ([4]; 12.96 mg/kg sc): 96%
In-vivo Efficacy SD37 ([4]; 12.96 mg/kg sc): 81%
In-vivo Efficacy SD42 ([4]; 12.96 mg/kg sc): 75%
recovery at 24 h, 0.1 mg/mL [5]: 100%
